From BindingDB's records for doi:10.1021/jm00041a011 (Ohio State University, 1994) come the findings set out here.

pIC50: −log10 of the molar value. Values joined by “and” are separate entries in the source; they are usually repeats but may differ in a detail not shown here. Identical values can stand only once. Counter-ions that a name gives are not always drawn.

The assay in a line: Tested for its ability to antagonize epinephrine induced primary wave aggregation in human platelets at alpha-2A-adrenergic receptor sites.
In general, pIC50 refers to the IC50 on a negative log10 scale, so that one unit is a factor of ten. In turn, `OC(c1cnc[nH]1)(c1cccc2ccccc12)C(F)(F)F` (stereo unspecified) [2,2,2-Trifluoro-1-(1H-imidazol-4-yl)-1-naphthalen-1-yl-ethanol; hydrochloride] gave a pIC50 of less than 3.52.
For the molecule `CC(c1cnc[nH]1)c1cccc2ccccc12` (stereo unspecified) [4-(1-Naphthalen-1-yl-ethyl)-1H-imidazole], the pIC50 is 4.91 and 5.04.
As for `COC(c1cnc[nH]1)c1cccc2ccccc12` (stereo unspecified) [4-(Methoxy-naphthalen-1-yl-methyl)-1H-imidazole; hydrochloride], the figure is 3.42; as for `c1ccc2c(Cc3cnc[nH]3)cccc2c1` [4-Naphthalen-1-ylmethyl-1H-imidazole; hydrochloride], 5.52.
As for `OC(c1cnc[nH]1)c1cccc2ccccc12` (stereo unspecified) [(1H-Imidazol-4-yl)-naphthalen-1-yl-methanol; hydrochloride], the figure is 4.21; as for `O=C(c1cnc[nH]1)c1cccc2ccccc12` [(1H-Imidazol-4-yl)-naphthalen-1-yl-methanone; oxalic acid], 3.24.
